The test system of assay [1] is Staphylococcus aureus. Kind of assay: Antibacterial activity against Staphylococcus aureus TP32 clinical isolate at 1 mg/ml after 24 hr by agar well diffusion method. Type of assay: functional. The following applies: for zone of inhibition at 1000 µg/mL: TP32, 24 h, read-out: IZ.
Assay [2] has as its system Bacillus cereus. Kind of assay: Antibacterial activity against Bacillus cereus RSKK 863 at 1 mg/ml after 24 hr by agar well diffusion method. Type of assay: functional. The following applies: for zone of inhibition at 1000 µg/mL: RSKK 863, 24 h, read-out: IZ.
Assay [3] relates to Pseudomonas aeruginosa. As to the kind of experiment: Antibacterial activity against Pseudomonas aeruginosa […] at 1 mg/ml after 24 hr by agar well diffusion method. Type of assay: functional. The following applies: for zone of inhibition at 1000 µg/mL: read-out: IZ.
The subject of assay [4] is Escherichia coli. Kind of assay: Antibacterial activity against Escherichia coli ATCC 35218 at 1 mg/ml after 24 hr by agar well diffusion method. Type of assay: functional. The following applies: for zone of inhibition at 1000 µg/mL: ATCC 35218, 24 h, read-out: IZ.
The test system of assay [5] is Pseudomonas aeruginosa. As to the kind of experiment: Antibacterial activity against Pseudomonas aeruginosa […] at 10 units/disk after 24 hr by agar well diffusion method. Type of assay: functional, organism-based.
The subject of assay [6] is Escherichia coli. Kind of assay: Antibacterial activity against Escherichia coli ATCC 35218 at 10 units/disk after 24 hr by agar well diffusion method. Type of assay: functional.
Assay [7] relates to Bacillus cereus. Kind of assay: Antibacterial activity against Bacillus cereus RSKK 863 at 10 units/disk after 24 hr by agar well diffusion method. Type of assay: functional, organism-based.
For assay [8], the system named is Escherichia coli. As to the kind of experiment: Antibacterial activity against Escherichia coli ATCC 35218 at 30 ug/disk after 24 hr by agar well diffusion method. Type of assay: functional, organism-based.
Assay [9] deals with Pseudomonas aeruginosa. Kind of assay: Antibacterial activity against Pseudomonas aeruginosa […] at 30 ug/disk after 24 hr by agar well diffusion method. Type of assay: functional.
Assay [10] has as its system Bacillus cereus. Kind of assay: Antibacterial activity against Bacillus cereus RSKK 863 at 30 ug/disk after 24 hr by agar well diffusion method. Type of assay: functional. The settings on record: for zone of inhibition at 30 µg/disc: RSKK 863, 24 h, read-out: IZ.
Assay [11] deals with Bacillus cereus. As to the kind of experiment: Antibacterial activity against Bacillus cereus RSKK 863 at 15 ug/disk after 24 hr by agar well diffusion method. Type of assay: functional. The following applies: RSKK 863, 24 h, read-out: IZ.
The subject of assay [12] is Escherichia coli. As to the kind of experiment: Antibacterial activity against Escherichia coli ATCC 35218 at 15 ug/disk after 24 hr by agar well diffusion method. Type of assay: functional. The following applies: ATCC 35218, 24 h, read-out: IZ.
Assay [13] concerns Pseudomonas aeruginosa. As to the kind of experiment: Antibacterial activity against Pseudomonas aeruginosa […] at 15 ug/disk after 24 hr by agar well diffusion method. Type of assay: functional, organism-based.
For assay [14], the system named is Bacillus cereus. Kind of assay: Antibacterial activity against Bacillus cereus RSKK 863 at 10 ug/disk after 24 hr by agar well diffusion method. Type of assay: functional. The following applies: RSKK 863, 24 h, read-out: IZ.
In assay [15] the test system is Pseudomonas aeruginosa. Kind of assay: Antibacterial activity against Pseudomonas aeruginosa […] at 10 ug/disk after 24 hr by agar well diffusion method. Type of assay: functional, organism-based.
In assay [16] the test system is Escherichia coli. As to the kind of experiment: Antibacterial activity against Escherichia coli ATCC 35218 at 10 ug/disk after 24 hr by agar well diffusion method. Type of assay: functional. The settings on record: ATCC 35218, 24 h, read-out: IZ.

SMILES strings stand for the structures. The source made the active and inactive calls. The rule behind the calls is not given here.

For the molecule `N#C/C(=N\Nc1ccc(I)cc1)c1nnn[nH]1`, the zone of inhibition at 1000 µg/mL in [1] came out at 8 mm; in assay [2], 10 mm; in [3], 9 mm; in [4], 7 mm.
For `N#C/C(=N\Nc1ccc([N+](=O)[O-])cc1)c1nnn[nH]1` the same measures were 3 mm, 11 mm, 5 mm and 10 mm.
As to `N#C/C(=N\Nc1ccccc1Cl)c1nnn[nH]1`, the zone of inhibition at 1000 µg/mL in assay [1] is 7 mm; in assay [2], 5 mm; in [3], 10 mm. Moreover, in assay [4], the “inhibition zone (IZ)” value is “inactive”.
In the case of `COc1ccccc1N/N=C(\C#N)c1nnn[nH]1`, the “inhibition zone (IZ)” value in [1], in assay [2], in [3] and in assay [4] was “inactive” in each case.
For `CC1(C)S[C@@H]2[C@H](NC(=O)Cc3ccccc3)C(=O)N2[C@H]1C(=O)O` [PENICILLIN G], the “inhibition zone (IZ)” value in [5] and in assay [7] was “inactive” throughout. Also, in [6], the “inhibition zone (IZ)” value is on record as 17 mm.
Turning to `N#C/C(=N\Nc1ccc(F)cc1)c1nnn[nH]1`, the zone of inhibition at 1000 µg/mL in assay [1] is 10 mm; in assay [2], 19 mm; in [3], 8 mm; in [4], 11 mm.
For `N#C/C(=N\Nc1ccc(Cl)cc1)c1nnn[nH]1` the same measures were 6 mm, 21 mm, 8 mm and 10 mm.
Consider `CN[C@H](CC(C)C)C(=O)N[C@H]1C(=O)N[C@@H](CC(N)=O)C(=O)N[C@H]2C(=O)N[C@H]3C(=O)N[C@H](C(=O)N[C@H](C(=O)O)c4cc(O)cc(O)c4-c4cc3ccc4O)[C@H](O)c3ccc(c(Cl)c3)Oc3cc2cc(c3O[C@@H]2O[C@H](CO)[C@@H](O)[C@H](O)[C@H]2O[C@H]2C[C@](C)(N)[C@H](O)[C@H](C)O2)Oc2ccc(cc2Cl)[C@H]1O` [VANCOMYCIN], for which the “inhibition zone (IZ)” value in assay [8] and in assay [9] was “inactive” each time. In addition, the zone of inhibition at 30 µg/disc in [10] worked out at 17 mm.
As to `N#C/C(=N\Nc1ccccc1Br)c1nnn[nH]1`, the “inhibition zone (IZ)” value in assay [1] is “inactive”. The zone of inhibition at 1000 µg/mL in [2] turned out to be 12 mm; in assay [3], 3 mm; in assay [4] it was 7 mm.
For `COc1ccc(N/N=C(\C#N)c2nnn[nH]2)cc1`, the “inhibition zone (IZ)” value in assay [1] and in assay [3] was “inactive” in each case. In addition, the zone of inhibition at 1000 µg/mL in assay [2] is 7 mm; in assay [4], 10 mm.
Take `N#C/C(=N\Nc1ccccc1)c1nnn[nH]1`: the zone of inhibition at 1000 µg/mL amounted to 8 mm in assay [1], 15 mm in assay [2], 9 mm in assay [3] and 7 mm in assay [4].
Consider `N#C/C(=N\Nc1ccccc1F)c1nnn[nH]1`, for which the zone of inhibition at 1000 µg/mL came to 5 mm in assay [1], 19 mm in assay [2], 4 mm in assay [3] and 14 mm in assay [4].
For `CN(C)[C@@H]1C(O)=C(C(N)=O)C(=O)[C@@]2(O)C(O)=C3C(=O)c4c(O)cccc4[C@@](C)(O)[C@H]3C[C@@H]12` [TETRACYCLINE], the “inhibition zone (IZ)” value in assay [8] was “inactive”. The zone of inhibition at 30 µg/disc was found to be 16 mm in assay [9] (read-out: IZ) and 17 mm in assay [10].
Turning to `N#C/C(=N\Nc1ccc(Br)cc1)c1nnn[nH]1`, the zone of inhibition at 1000 µg/mL in assay [1] was 6 mm; in assay [2] it was 20 mm; in assay [3], 8 mm; in assay [4] it was 14 mm.
With `CC[C@H]1OC(=O)[C@H](C)[C@@H](O[C@H]2C[C@@](C)(OC)[C@@H](O)[C@H](C)O2)[C@H](C)[C@@H](O[C@@H]2O[C@H](C)C[C@H](N(C)C)[C@H]2O)[C@](C)(O)C[C@@H](C)C(=O)[C@H](C)[C@@H](O)[C@]1(C)O` [ERYTHROMYCIN], the values for the zone of inhibition at 15 µg/disc in [11] and in assay [12] were 19 mm and 11 mm, respectively. The “inhibition zone (IZ)” value in assay [13] is “inactive”.
For `Cc1ccccc1N/N=C(\C#N)c1nnn[nH]1`, the zone of inhibition at 1000 µg/mL in assay [1] came to 4 mm; in assay [2], 20 mm; in assay [3], 5 mm; in assay [4], 10 mm.
`OC(Cn1cncn1)(Cn1cncn1)c1ccc(F)cc1F`: the “inhibition zone (IZ)” value in assay [8], in [9] and in [10] was “inactive” throughout.
`CC1(C)S[C@@H]2[C@H](NC(=O)[C@H](N)c3ccccc3)C(=O)N2[C@H]1C(=O)O` [AMPICILLIN]: the zone of inhibition at 10 µg/disc in assay [14] came to 20 mm; in [16] it was 9 mm. For the same molecule, the “inhibition zone (IZ)” value in assay [15] is “inactive”.
Take `N#C/C(=N\Nc1ccccc1I)c1nnn[nH]1`: the zone of inhibition at 1000 µg/mL in assay [1] was determined as 3 mm; in assay [2], 17 mm; in assay [3], 5 mm; in [4], 7 mm.
As to `N#C/C(=N\Nc1ccccc1[N+](=O)[O-])c1nnn[nH]1`, the zone of inhibition at 1000 µg/mL in assay [1] was determined as 4 mm; in [2], 10 mm; in assay [3] it was 4 mm; in [4], 7 mm.
As to `Cc1ccc(N/N=C(\C#N)c2nnn[nH]2)cc1`, the zone of inhibition at 1000 µg/mL in [1] came out at 8 mm; in assay [2], 20 mm; in assay [3] it was 8 mm; in assay [4], 10 mm.

These data come from ChEMBL document CHEMBL3046947, “Synthesis and antimicrobial activity studies of some novel substituted phenylhydrazono-1H-tetrazol-5-yl-acetonitriles” (2010).
